# Data published in patent US9200005B2, “Inhibitor compounds of phosphodiesterase type 10A” (AbbVie Deutschland GmbH & Co. KG, priority 2013, dated 2015).
# Where a name gives a salt, the structure may show the parent alone.
# Key:
# [1] = Determination of the microsomal half-life / microsomal clearance, rat liver microsomes; format: in vitro ADME; settings: 0.5 μM test substance, 0.25 mg of microsomal protein/mL, NADPH, 37° C.
# Procedure: (§1) b) Determination of the Microsomal Half-Life:
# (§2) The metabolic stability of the compounds of the invention was determined in the following assay.
# (§3) The test substances were incubated in a concentration of 0.5 μM as follows:
# (§4) 0.5 μM test substance are preincubated together with liver microsomes from different species (from rat, human or other species) (0.25 mg of microsomal protein/mL) in 0.05 M potassium phosphate buffer of pH 7.4 in microtiter plates at 37° C. for 5 min. The reaction is started by adding NADPH (1 mg/mL). After 0, 5, 10, 15, 20 and 30 min, 50 μl aliquots are removed, and the reaction is immediately stopped and cooled with the same volume of acetonitrile. The samples are frozen until analyzed. The remaining concentration of undegraded test substance is determined by MSMS. The half-life (T½) is determined from the gradient of the signal of test substance/unit time plot, it being possible to calculate the half-life of the test substance, assuming first order kinetics, from the decrease in the concentration of the compound with time. The microsomal clearance (mCl) is calculated from mCl=ln 2/T½/(content of microsomal protein in mg/mL)×1000 [mL/min/mg] (modified from references: Di, The Society for Biomoleculur Screening, 2003, 453-462; Obach, DMD, 1999 vol 27. N 11, 1350-1359).
# [2] = Determination of the microsomal half-life / microsomal clearance, human liver microsomes; format: in vitro ADME; settings: 0.5 μM test substance, 0.25 mg of microsomal protein/mL, NADPH, 37° C.
# Procedure: as §1, §2, §3, §4
SMILES,Rat mCl [1],Human mCl [2]
"CN1CCN(Cc2ccc(-c3csc4c(-c5ccncc5)nn(C)c(=O)c34)cc2)CC1.O=C(O)C(F)(F)F.O=C(O)C(F)(F)F.O=C(O)C(F)(F)F [Example 43, 5-methyl-3-{4-[(4-methylpiperazin-1-yl)methyl]phenyl}-7-(pyridin-4-yl)thieno[2,3-d]pyridazin-4(5H)-one tris(trifluoroacetate)]",++ (++: <100 μl min^−1 mg^−1),++ (++: <100 μl min^−1 mg^−1)
"Cn1nc(-c2ccncc2)c2scc(-c3ccc(NS(C)(=O)=O)cc3)c2c1=O.O=C(O)C(F)(F)F [Example 33, N-{4-[5-methyl-4-oxo-7-(pyridin-4-yl)-4,5-dihydrothieno[2,3-d]pyridazin-3-yl]phenyl}methanesulfonamide trifluoroacetate]",∘ (∘ not avialable or >220 μl min^−1 mg^−1),++ (++: <100 μl min^−1 mg^−1)
"Cn1cc(-c2csc3c(-c4ccncc4)nn(C)c(=O)c23)cn1.O=C(O)C(F)(F)F [Example 37, 5-methyl-3-(1-methyl-1H-pyrazol-4-yl)-7-(pyridin-4-yl)thieno[2,3-d]pyridazin-4(5H)-one trifluoroacetate]",+ (+: 100-220 μl min^−1 mg^−1),++ (++: <100 μl min^−1 mg^−1)
"CN1CCN(Cc2cccc(-c3csc4c(-c5ccncc5)nn(C)c(=O)c34)c2)CC1.O=C(O)C(F)(F)F.O=C(O)C(F)(F)F.O=C(O)C(F)(F)F [Example 42, 5-methyl-3-{3-[(4-methylpiperazin-1-yl)methyl]phenyl}-7-(pyridin-4-yl)thieno[2,3-d]pyridazin-4(5H)-one tris(trifluoroacetate)]",++ (++: <100 μl min^−1 mg^−1),+ (+: 100-220 μl min^−1 mg^−1)
"Cn1nc(-c2ccncc2)c2scc(-c3cccc(F)c3)c2c1=O.O=C(O)C(F)(F)F [Example 31, 3-(3-fluorophenyl)-5-methyl-7-(pyridin-4-yl)thieno[2,3-d]pyridazin-4(5H)-one trifluoroacetate]",++ (++: <100 μl min^−1 mg^−1),+ (+: 100-220 μl min^−1 mg^−1)
"Cn1nc(-c2ccncc2)c2scc(N3CCNCC3)c2c1=O [Example 12, 5-methyl-3-(piperazin-1-yl)-7-(pyridin-4-yl)thieno[2,3-d]pyridazin-4(5H)-one (dihydrochloride salt)]",++ (++: <100 μl min^−1 mg^−1),++ (++: <100 μl min^−1 mg^−1)
"Cn1nc(OCC2CCN(C(=O)OC(C)(C)C)CC2)c2scc(-c3ccncc3)c2c1=O [Example 79, tert-butyl 4-({[5-methyl-4-oxo-3-(pyridin-4-yl)-4,5-dihydrothieno[2,3-d]pyridazin-7-yl]oxy}methyl)piperidine-1-carboxylate]",+ (+: 100-220 μl min^−1 mg^−1),+ (+: 100-220 μl min^−1 mg^−1)
"CN1CCN(c2nn(C)c(=O)c3c(-c4ccncc4)csc23)CC1 [Example 49, 5-methyl-7-(4-methylpiperazin-1-yl)-3-(pyridin-4-yl)thieno[2,3-d]pyridazin-4(5H)-one]",++ (++: <100 μl min^−1 mg^−1),++ (++: <100 μl min^−1 mg^−1)
"COc1ccccc1-c1csc2c(-c3ccncc3)nn(C)c(=O)c12.O=C(O)C(F)(F)F [Example 39, 3-(2-methoxyphenyl)-5-methyl-7-(pyridin-4-yl)thieno[2,3-d]pyridazin-4(5H)-one trifluoroacetate]",++ (++: <100 μl min^−1 mg^−1),++ (++: <100 μl min^−1 mg^−1)
"COc1cccc(-c2csc3c(-c4ccncc4)nn(C)c(=O)c23)c1.O=C(O)C(F)(F)F [Example 30, 3-(3-methoxyphenyl)-5-methyl-7-(pyridin-4-yl)thieno[2,3-d]pyridazin-4(5H)-one trifluoroacetate]",+ (+: 100-220 μl min^−1 mg^−1),+ (+: 100-220 μl min^−1 mg^−1)
"Cn1nc(-c2ccncc2)c2scc(-c3ccc(C#N)cc3)c2c1=O.O=C(O)C(F)(F)F [Example 25, 4-[5-methyl-4-oxo-7-(pyridin-4-yl)-4,5-dihydrothieno[2,3-d]pyridazin-3-yl]benzonitrile trifluoroacetate]",++ (++: <100 μl min^−1 mg^−1),++ (++: <100 μl min^−1 mg^−1)
"Cn1nc(N2CCCCC2)c2scc(-c3ccncc3)c2c1=O [Example 47, 5-methyl-7-(piperidin-1-yl)-3-(pyridin-4-yl)thieno[2,3-d]pyridazin-4(5H)-one]",+ (+: 100-220 μl min^−1 mg^−1),+ (+: 100-220 μl min^−1 mg^−1)
"Cn1nc(OCC2CCCCC2)c2scc(-c3ccncc3)c2c1=O [Example 57, 7-(cyclohexylmethoxy)-5-methyl-3-(pyridin-4-yl)thieno[2,3-d]pyridazin-4(5H)-one]",+ (+: 100-220 μl min^−1 mg^−1),+ (+: 100-220 μl min^−1 mg^−1)
"Cn1nc(-c2ccncc2)c2scc(-c3ccccc3F)c2c1=O.O=C(O)C(F)(F)F [Example 36, 3-(2-fluorophenyl)-5-methyl-7-(pyridin-4-yl)thieno[2,3-d]pyridazin-4(5H)-one trifluoroacetate]",++ (++: <100 μl min^−1 mg^−1),++ (++: <100 μl min^−1 mg^−1)
"Cn1nc(-c2ccncc2)c2scc(N3CCC(O)CC3)c2c1=O [Example 4, 3-(4-hydroxypiperidin-1-yl)-5-methyl-7-(pyridin-4-yl)thieno[2,3-d]pyridazin-4(5H)-one]",++ (++: <100 μl min^−1 mg^−1),++ (++: <100 μl min^−1 mg^−1)
"Cn1nc(-c2ccncc2)c2scc(-c3ccc(F)nc3)c2c1=O.O=C(O)C(F)(F)F.O=C(O)C(F)(F)F [Example 27, 3-(6-fluoropyridin-3-yl)-5-methyl-7-(pyridin-4-yl)thieno[2,3-d]pyridazin-4(5H)-one bis(trifluoroacetate)]",++ (++: <100 μl min^−1 mg^−1),++ (++: <100 μl min^−1 mg^−1)
"Cn1nc(OCc2ccc3c(c2)CN(C(=O)OC(C)(C)C)C3)c2scc(-c3ccncc3)c2c1=O [Example 80, tert-butyl 5-({[5-methyl-4-oxo-3-(pyridin-4-yl)-4,5-dihydrothieno[2,3-d]pyridazin-7-yl]oxy}methyl)-1,3-dihydro-2H-isoindole-2-carboxylate]",++ (++: <100 μl min^−1 mg^−1),++ (++: <100 μl min^−1 mg^−1)

# The remaining lines, values ahead:
Rat mCl [1],Human mCl [2],SMILES
++ (++: <100 μl min^−1 mg^−1),++ (++: <100 μl min^−1 mg^−1),"Cn1nc(-c2ccncc2)c2scc(-c3cccc(C(=O)N4CCOCC4)c3)c2c1=O [Example 32, 5-methyl-3-[3-(morpholin-4-ylcarbonyl)phenyl]-7-(pyridin-4-yl)thieno[2,3-d]pyridazin-4(5H)-one trifluoroacetate]"
++ (++: <100 μl min^−1 mg^−1),+ (+: 100-220 μl min^−1 mg^−1),"O=c1c2c(-c3ccncc3)csc2c(-c2ccncc2)nn1CC1CCCO1 (stereo not shown) [Example 141, 3,7-di(pyridin-4-yl)-5-(tetrahydrofuran-2-ylmethyl)thieno[2,3-d]pyridazin-4(5H)-one]"
+ (+: 100-220 μl min^−1 mg^−1),++ (++: <100 μl min^−1 mg^−1),"Cn1nc(-c2ccncc2)c2scc(-c3ccsc3)c2c1=O.O=C(O)C(F)(F)F [Example 34, 5-methyl-7-(pyridin-4-yl)-3-(thiophen-3-yl)thieno[2,3-d]pyridazin-4(5H)-one trifluoroacetate]"
++ (++: <100 μl min^−1 mg^−1),+ (+: 100-220 μl min^−1 mg^−1),"Cn1nc(OCc2ccc(Cl)c(Cl)c2)c2scc(-c3ccncc3)c2c1=O [Example 77, 7-[(3,4-dichlorobenzyl)oxy]-5-methyl-3-(pyridin-4-yl)thieno[2,3-d]pyridazin-4(5H)-one]"
++ (++: <100 μl min^−1 mg^−1),++ (++: <100 μl min^−1 mg^−1),"Cn1nc(-c2ccccc2C(N)=O)c2scc(-c3ccncc3)c2c1=O [Example 98, 2-[5-methyl-4-oxo-3-(pyridin-4-yl)-4,5-dihydrothieno[2,3-d]pyridazin-7-yl]benzamide]"
+ (+: 100-220 μl min^−1 mg^−1),+ (+: 100-220 μl min^−1 mg^−1),"Cn1nc(-c2ccncc2)c2scc(-c3ccc4c(c3)CCO4)c2c1=O.O=C(O)C(F)(F)F [Example 35, 3-(2,3-dihydro-1-benzofuran-5-yl)-5-methyl-7-(pyridin-4-yl)thieno[2,3-d]pyridazin-4(5H)-one trifluoroacetate]"
++ (++: <100 μl min^−1 mg^−1),+ (+: 100-220 μl min^−1 mg^−1),"CC(C)(C)n1nc(-c2ccncc2)c2scc(-c3ccncc3)c2c1=O [Example 132, 5-tert-butyl-3,7-di(pyridin-4-yl)thieno[2,3-d]pyridazin-4(5H)-one]"
++ (++: <100 μl min^−1 mg^−1),++ (++: <100 μl min^−1 mg^−1),"COc1ncc(-c2csc3c(-c4ccncc4)nn(C)c(=O)c23)cn1 [Example 10, 3-(2-methoxypyrimidin-5-yl)-5-methyl-7-(pyridin-4-yl)thieno[2,3-d]pyridazin-4(5H)-one]"
++ (++: <100 μl min^−1 mg^−1),++ (++: <100 μl min^−1 mg^−1),"N#Cc1cccc(-c2csc3c(-c4ccncc4)nn(CC(F)(F)F)c(=O)c23)c1 [Example 129, 3-[4-oxo-7-(pyridin-4-yl)-5-(2,2,2-trifluoroethyl)-4,5-dihydrothieno[2,3-d]pyridazin-3-yl]benzonitrile]"
